What all share (experiment): NCI tumour cell line growth inhibition, 48 h
For assay [1], the system named is DLD-1 colon.
Assay [2] relates to KM20L2 colon.
Assay [3] relates to LXFL 529 NSCLC.
For assay [4], the system named is M19-MEL melanoma.
Assay [5] has as its system XF 498 CNS.
Assay [6] concerns RXF-631 renal.
The test system of assay [7] is SNB-78 CNS.
In assay [8] the test system is P388 leukemia.
The subject of assay [9] is P388/ADR leukemia.
The test system of assay [10] is SN12K1 renal.

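A five-concentration, 48-hour dose response in 96-well plates underlies each endpoint, interpolated linearly between surrounding concentrations. GI50 is the concentration that inhibits growth by half. TGI marks complete inhibition of growth.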

As to `c1cnc2c(c1)-n1cccc1C1(CCOCC1)NN2`, the TGI in assay [1], in [2], in assay [3], in [4] and in assay [5] was greater than 100 µM in each case.
Take `CC(C)(C)C1CC[C@H]2c3c([nH]c4ccc(Br)cc34)[C@H]3C(=O)N(c4ccccc4)C(=O)[C@H]3[C@H]2C1` (stereo partly drawn): the TGI in [1] is greater than 100 µM; in [2] it was greater than 100 µM; in assay [3], 31.3 µM; in [4], 49.8 µM; in assay [6], 19.5 µM; in assay [7], 33.4 µM. The TGI in assay [5] turned out to be 38.2 µM.
On to `Oc1c(Cl)c2nccnc2c2ccccc12`, for which the TGI in assay [1], in [2], in assay [3], in [4], in assay [7] and in assay [5] was greater than 100 µM throughout.
Regarding `CS(=O)(=O)NNS(=O)(=O)c1ccc(Br)cc1`, the TGI in assay [1], in [2], in assay [3], in assay [4], in assay [7] and in assay [5] was greater than 100 µM throughout.
Turning to `c1ccc2[nH]c(-c3nc4ccccc4o3)nc2c1`, the TGI in assay [1], in [2], in assay [3], in assay [4], in assay [7] and in [5] was greater than 100 µM each time.
Take `O=C(CCN1CCCCC1CCO)Nc1ccc2c(c1)C(=O)c1ccc(NC(=O)CCN3CCCCC3CCO)cc1C2=O` (stereo not drawn): the TGI in [1] was determined as 14.9 µM; in assay [2] it was 38 µM; in assay [3], 5.65 µM; in assay [4], 74.9 µM; in assay [7], 20.1 µM.
For `COC1/C=C\C=C(/C)C(=O)NC2=CC(=O)C(NCCCl)=C(CC(C)CC(OC)C(O)C(C)/C=C(/C)C1OC(N)=O)C2=O` (stereo not drawn), the TGI in assay [1] came to 11.6 µM; in assay [2], 0.385 µM; in [3], 13.9 µM; in assay [4], 1.57 µM; in assay [7] it was 19.2 µM; in assay [5], 8.85 µM.
Take `C=C1CC2CC[C@@]34C[C@@H]5O[C@@H]6C(O[C@H]7CC[C@H](CC(=O)OC8[C@@H](C)C9OC%10C[C@]%11(C[C@@H]%12O[C@@]%13(C[C@@H](C)[C@@H]%12O%11)C[C@H](C)[C@@H]%11OC%12CC(C(O)CO)OC%12C[C@@H]%11O%13)OC%10CC9O[C@H]8C[C@H]8O[C@@H](CC[C@@H]1O2)C[C@@H](C)C8=C)O[C@@H]7[C@@H]6O3)C5O4` (stereo partly drawn): the GI50 in assay [1], in assay [2], in assay [7] and in assay [5] was less than 0.000148 µM throughout. The TGI is greater than 1.48 µM in [1]; 0.0156 µM in assay [8]; 0.13 µM in assay [9]; 0.0034 µM in assay [6]; 0.0162 µM in assay [10]; 1.32 µM in assay [7].
Take `On1c(-c2ccccc2)c(-c2c(-c3ccccc3)n(O)c3ccccc23)c2ccccc21`: the TGI is greater than 100 µM in assay [1]; 20 µM in assay [3]; greater than 100 µM in assay [4]; greater than 100 µM in assay [7]; 71 µM in [5].
Take `CN(C)[C@@H]1C(=O)C(C(N)=O)=C(O)[C@@]2(O)C(=O)C3=C(O)c4c(O)cccc4C[C@H]3C[C@@H]12`: the TGI in [1] amounted to 10.8 µM; in assay [2], 6.18 µM; in assay [3], 3.88 µM; in assay [4], 3.12 µM.
As for `COC(=O)/C(=C/c1ccc(OC)cc1)C(C(=O)O)=C(C)C`, the TGI in assay [1], in assay [2], in [3], in assay [4] and in [7] was greater than 100 µM throughout.
On to `COc1cc2c(cc1O)[C@H](C)C(c1ccc(Cl)cc1)O2` (stereo partly drawn), for which the TGI in assay [1] is 79.6 µM; in [2], 66.2 µM; in [3], 34.7 µM; in assay [4] it was 33 µM; in assay [6], 50.5 µM; in assay [7], greater than 100 µM. This compound came in with a TGI in assay [5] of 29.4 µM.
Take `C=CCN1C(=O)CS/C1=N\NC(=O)c1c(C)nc2sccn12`: the TGI in assay [1], in assay [2], in [3], in assay [4], in assay [6] and in assay [5] was greater than 100 µM throughout.

The record behind these values is PubChem BioAssay (NCI).
